Assay results taken from patent US20230204594A1, “SYSTEMS AND METHODS FOR REAL-TIME CELLULAR DRUG-TARGET ENGAGEMENT” (NERD BIO LLC, priority 2021, published 2023).
pEC50, pIC50, pKd: −log10 of the molar value. Read-outs that look alike come from different tables or passages of the source.

Key:
[1] = target: T1, BCL6 Micro-tagged protein (BCL6-S-tag fusion protein) (Homo sapiens, UniProt P41182); assay: Small molecule target engagement screening on lysates, micro-tagged BCL6 heated at Tmin; format: binding
T1 construct: expressed in transfected cells; host or cells: HEK293, lysate (1% Triton X-100 in TBS)
Protocol: HEK293 cells were transfected using Lipofectamine 2000 according to manufacturer protocol. Two days after transfection, media was removed and cells lifted by pipetting up and down using 1×TBS. Cells were centrifuged at 400 g for 4 min. The TBS wash was removed and the cells lysed with either 1% Triton X 100 in TBS for MTH1 and BCL6, or 0.5% DDM in TBS for EGFR expressing cells. Cells were lysed at 4° C. on a rotator for 1 hour and cell debris removed by gentle centrifugation for 1 minute at 6000 rpm. Lysates were transferred to a new tube and aliquots that were not used immediately in the assay were frozen at −80° C. for future use.
Small molecule compounds were dissolved in DMSO at 10 mM and serial dilutions in DMSO at 100× concentration were prepared from this stock. Lysates from cells expressing the micro-tagged (S-peptide tagged) protein were diluted with cold 1×TBS at 1/10 and 39.6 ul aliquoted to a PCR plate; […]. The heated sample (30 ul) was added and fluorescence detected using a microplate reader. The plate was read in kinetic mode (excitation=485 nm, emission=520 nm) with the PolarStar Omega 96-well plate reader.
For analysis, the RAW fluorescence signal or fluorescence change per minute was plotted with inhibitor dose on a Semi-Log scale using GraphPad Prism. Nonlinear regression analysis was used for curve fitting to identify EC50 of target engagement or apparent KD.
After 4 minutes incubation the fluorescence detected could be plotted with dose of inhibitor tested on a semi-log scale. Using nonlinear regression analysis and fitting a Sigmoidal dose-response curve (with variable slope) using GraphPad Prism identified an EC50 of Target Engagement. […] The peak fluorescence signal identified the dose of inhibitor that saturates the micro-tag protein target. At concentrations of the inhibitor above this saturating dose there was rapid cleavage of the FRET-labeled substrate resulting in loss of fluorescence signal over time (Relative Light Unit per minute (RLU/min)) and lower fluorescence detected. At concentrations below this saturating dose the micro-tag construct was denatured in the heat challenge and there was less micro-tag available for enzyme complementation resulting in lower fluorescence signal (FIG. 36A). […].

BCL6 = BCL6 (Homo sapiens, UniProt P41182); details: known value, read-out: in vitro IC50, cited from earlier work

Compound: CNC(=O)COc1cc2cc(Nc3nc(N4CCC(C(=O)N(C)C)CC4)ncc3Cl)cc(OC)c2n(C)c1=O [BI-3812]
- pEC50 ([1]; HEK293 lysates, heated at Tmin, fluorescence after 4 minutes incubation, FIG. 38A, read-out: EC50 of target engagement): 9.20
- pKd ([1]; Saturation Binding Equation (One-site total), after 15 minutes, FIG. 39C, read-out: Apparent Equilibrium Dissociation Constant (apparent KD)): 8.80
- pEC50 ([1]; after 15 minutes, FIG. 39B, read-out: EC50 of target engagement after removal of data points beyond the target saturation dose): 9.05
- pIC50 (BCL6; well-characterized inhibitor): ~8.52

Compound: C[C@@H]1C[C@H](C)CN(c2ncc(Cl)c(Nc3ccc4c(c3)cc(OC(C)(C)C(=O)O)c(=O)n4C)n2)C1 [BI-5273]
- binding to the BCL6 micro-tag target ([1]; HEK293 lysates, heated at Tmin, 4 minutes incubation, FIG. 38B): did not bind the target
- pIC50 (BCL6; inactive structural analog): ~5.00
